Assay results taken from patent US7335248B2, “Marine antifouling coating compositions” (Novus International, Inc., priority 2005, dated 2008).
“And” between values parts separate entries of the source, which are not always exact repeats. Identical values can stand only once. Like-named read-outs stand apart in the source and are kept apart here.

Experiments:
barnacles [1] = assay: Six month static immersion fouling test of painted PVC panels (open ocean, Tuticorin, India); assay type: in vivo; details: for Total barnacle Count: both duplicate panels; for Mean ± SD (barnacle count): four panel surfaces; for efficacy / barnacle settlement: copper self-polishing and metal-free ablative coatings, six months of exposure
Description: The reported data were extracted from the raw data as described below, and are shown as total barnacle counts for both duplicate panels of each test formulation. In Table 4, the mean and standard deviation of the data derived from the four panels' surfaces of the duplicate panels for each group. The barnacle counts along the edges were not considered in this evaluation because of the expected uneven coating and inherent tendency of barnacles to first attach to edges. In addition, coatings along the edges can be easily damaged or uneven. Thus, for evaluation purposes only the coated surfaces of the flat areas were considered for this evaluation.
Zinc Omadine was used as the positive control for this series of tests. It is important to note here that fouling is continuous throughout the year at the Tuticorin, India site and the degree of settlement is generally the same for the same coating system.

Oyster = details: 5%, 15 months, per panel side
Description: (§1) HMTBA-Cu and HMTBA-Zn were supplied in powdered form by Novus International. […] The formulated paints were applied on PVC test panels (3 inch by 10 inch, ⅛ inch thickness), allowed to dry and shipped to a marine research center at Sacred Heart Marine Research Centre (SHMRC) in Tuticorin, India. The panels were mounted on frames on a floating platform in the open ocean and submerged totally under 3 ft of seawater for a period of 6 months, 9, or 12 months.
(§2) After the completion of the exposure period the panels were taken out of the seawater and transported to the shore laboratory in containers with seawater. The panels were evaluated by digital photography and physical examination of the coated surface. Barnacles were counted on the surface of the panels and along the edges. When there was substantial fouling on the surface, the area of the panel surface covered by barnacle fouling was estimated according to the methods described in ASTM D-3623. The panels were returned to the platform and again placed in total immersion. The panels were out of seawater during the examination for no more than 10 minutes.

Tube-worms = details: CuSP paint; 5%; 15 months; per panel side; nitrate trihydrate
Description: as §1, §2

barnacles [2] = details: 5%, 15 months, per panel side
Description: as §1, §2

barnacle cyprids = assay: Barnacle cyprid settlement assay (method of Rittschof et al.), EC50 by probit analysis; assay type: in vivo, Balanus amphitrite amphitrite
Description: In this case, the defined effect is that the cyprids have not settled and have not attached to the Petri dish. Thus, in the attached data set, the “set” column indicates the total number of cyprid larvae that have settled and attached on the surface of the Petri dish and “non-set” indicates the total number of cyprids that remain swimming in the seawater and have not settled on the surface of the Petri dish.
Briefly, the barnacle adults are cultured in the laboratory and allowed to spawn naturally. The larvae are harvested and grown in artificial culture systems until they reach the cyprid stage at which time the larvae become competent to attach to surfaces. Once attached, the cyprids transform into a pinhead barnacle, thus becoming permanently attached to the surface. Rittschof D, Clare A S, Gerhart D J, Avelin Mary, Bonavetura J (1991) Barnacle in vitro assays for biologically active substances: toxicity and settlement assays using mass cultured Balanus amphitrite amphitrite Darwin. Biofouling (1992) 6:115-122.
(§3) Five replicates (e.g., a-e) for each concentration and the control were collected.

[3] = Solubility in seawater at the levels added in the cyprid assay; assay type: physicochemical; details: at the levels added (up to 0.1 mg/ml)
Description: as §3

barnacles [4] = assay: Nine month static immersion testing in the Indian Ocean; assay type: in vivo; details: 9-month static immersion
Description: Table 5 summarizes the anti-fouling data from the nine-month immersion test, performed as described above for the six month tests.

[5] = CUAB coating, 5% (w/w), 6 months
[6] = CUSP coating, 5% (w/w), 6 months
[7] = MFAB coating, 5% (w/w), 6 months
[8] = 1e-4 mg/ml, Total of five replicates
[9] = 0.001 mg/ml, Total of five replicates
[10] = 0.01 mg/ml, Total of five replicates
[11] = 0.1 mg/ml, Total of five replicates
[12] = CUAB coating, 1% (w/w), 6 months
[13] = CUAB coating, 3% (w/w), 6 months
[14] = CUAB coating, 10% (w/w), 6 months
[15] = CUSP coating, 1% (w/w), 6 months
[16] = CUSP coating, 3% (w/w), 6 months
[17] = CUSP coating, 10% (w/w), 6 months
[18] = MFAB coating, 1% (w/w), 6 months
[19] = MFAB coating, 3% (w/w), 6 months
[20] = MFAB coating, 10% (w/w), 6 months

In the case of [O-][n+]1ccccc1[S-].[O-][n+]1ccccc1[S-].[Zn+2] [Zn Omadine, zinc salt of pyrithione, reference compound], the “Total barnacle Count” value (barnacles [1]; [5]) is reported as 167, the “Mean ± SD (barnacle count)” value (barnacles [1]; [5]) is reported as 41.8 ± 23.3 and the “Total barnacle Count” value (barnacles [1]; [6]) is reported as 33. For the same compound, the “Mean ± SD (barnacle count)” value (barnacles [1]; [6]) was 8.3 ± 4.0, the “Total barnacle Count” value (barnacles [1]; [7]) was 113 and the “Mean ± SD (barnacle count)” value (barnacles [1]; [7]) was 28 ± 15.0. The “barnacle coverage of panels” value (barnacles [1]; MFSP coating, 5%, 6 months) was “fully covered by barnacles” and the “efficacy / barnacle settlement” value (barnacles [1]) was “substantial settlement”.
With O.O.O.O=[N+]([O-])[O-].O=[N+]([O-])[O-].[Cu+2] [Copper (II) Nitrate trihydrate, copper (II) nitrate trihydrate] the “No. of Oyster” value (Oyster; CuAB paint) was 1, the “No. of Oyster” value (Oyster; CuSP paint) was 2 and the “No. of Tube-worms” value (Tube-worms) was 2 and 1. For the same compound, the “edge No of Barnacles” value (barnacles [2]; CuAB paint) was 3, the “Maximum diameter in mm” value (barnacles [2]; CuAB paint, nitrate trihydrate) was 10 mm and 11 mm and 9 mm and the “No. of barnacles on the coated surface” value (barnacles [2]; CuSP paint) was 84. For the same compound, the “% of the surface with barnacles fouling” value (barnacles [2]; CuSP paint, nitrate trihydrate) was 50% and 40% and 60% and the “Maximum diameter in mm” value (barnacles [2]; CuSP paint, nitrate trihydrate) was 10 mm and 11 mm.
For CSCCC(O)C(=O)[O-].CSCCC(O)C(=O)[O-].[Zn+2] (stereo not drawn) [HMTBA-Zn, zinc 2-hydroxy-4-methylthiobutanoate chelate], the “% of set” value (barnacle cyprids; [8]) was 61%, the Non set (barnacle cyprids; [8]) was 122 and the Set (barnacle cyprids; [8]) was 191. For the same compound, the “% of set” value (barnacle cyprids; 1e-4 mg/ml, single replicate) was 57% and 60% (2×) and 77% and 55%, the Non set (barnacle cyprids; 1e-4 mg/ml, single replicate) was 28 and 21 and 12 and 25 and 36 and the Set (barnacle cyprids; 1e-4 mg/ml, single replicate) was 37 and 31 and 41 and 38 and 44. For the same compound, the “% of set” value (barnacle cyprids; [9]) was 58%, the Non set (barnacle cyprids; [9]) was 135 and the Set (barnacle cyprids; [9]) was 187. For the same compound, the “% of set” value (barnacle cyprids; 0.001 mg/ml, single replicate) was 62% and 78% and 69% and 41% and 42%, the Non set (barnacle cyprids; 0.001 mg/ml, single replicate) was 30 and 14 and 16 and 38 and 37 and the Set (barnacle cyprids; 0.001 mg/ml, single replicate) was 49 (2×) and 36 and 26 and 27. For the same compound, the “appearance and swimming behavior of cyprids” value (barnacle cyprids; 0.01 mg/ml and higher (so in the source)) was “no adverse effects”, the “% of set” value (barnacle cyprids; [10]) was 32% and the Non set (barnacle cyprids; [10]) was 207. The Set (barnacle cyprids; [10]) was 99, the “% of set” value (barnacle cyprids; 0.01 mg/ml, single replicate) was 30% and 26% and 40% and 32% and 35% and the Non set (barnacle cyprids; 0.01 mg/ml, single replicate) was 49 and 54 and 44 and 34 and 26. For the same compound, the Set (barnacle cyprids; 0.01 mg/ml, single replicate) was 21 and 19 and 29 and 16 and 14, the “toxic effects on the cyprids” value (barnacle cyprids; 0.1 mg per ml) was “death of all cyprids” and the “% of set” value (barnacle cyprids; [11]) was 0%. The Non set (barnacle cyprids; [11]) was 346, the Set (barnacle cyprids; [11]) was 0 and the “% of set” value (barnacle cyprids; 0.1 mg/ml, single replicate) was 0%. The Non set (barnacle cyprids; 0.1 mg/ml, single replicate) was 92 and 69 and 63 and 58 and 64, the Set (barnacle cyprids; 0.1 mg/ml, single replicate) was 0 and the EC50 (barnacle cyprids; barnacle cyprids not settled/attached to Petri dish, probit analysis) was 5.7 µg/mL. For the same compound, the “inhibition of barnacle cyprid settlement” value (barnacle cyprids; in vivo) was “biologically active as inhibitors of barnacle cyprid settlement”, the SLOPE (barnacle cyprids; probit analysis, barnacle settlement) was 1.564 and the “NO. RESPONDING” value (barnacle cyprids; probit data as input, DOSE .00001) was 97. The solubility in seawater [3] was “soluble in seawater at the levels added”, the “Total barnacle Count” value (barnacles [1]; [12]) was 123 and the “Mean ± SD (barnacle count)” value (barnacles [1]; [12]) was 30.8 ± 11.6. For the same compound, the “Total barnacle Count” value (barnacles [1]; [13]) was 52, the “Mean ± SD (barnacle count)” value (barnacles [1]; [13]) was 13.0 ± 10.7 and the “Total barnacle Count” value (barnacles [1]; [5]) was 1. The “Mean ± SD (barnacle count)” value (barnacles [1]; [5]) was 0.3 ± 0.4, the “Total barnacle Count” value (barnacles [1]; [14]) was 101 and the “Mean ± SD (barnacle count)” value (barnacles [1]; [14]) was 25.3 ± 2.9. For the same compound, the “Total barnacle Count” value (barnacles [1]; [15]) was 1, the “Mean ± SD (barnacle count)” value (barnacles [1]; [15]) was 0.3 ± 0.4 and the “Total barnacle Count” value (barnacles [1]; [16]) was 0. For the same compound, the “Mean ± SD (barnacle count)” value (barnacles [1]; [16]) was 0, the “Total barnacle Count” value (barnacles [1]; [6]) was 0 and the “Mean ± SD (barnacle count)” value (barnacles [1]; [6]) was 0. For the same compound, the “Total barnacle Count” value (barnacles [1]; [17]) was 2, the “Mean ± SD (barnacle count)” value (barnacles [1]; [17]) was 0.5 ± 0.9 and the “Total barnacle Count” value (barnacles [1]; [18]) was 0. For the same compound, the “Mean ± SD (barnacle count)” value (barnacles [1]; [18]) was 0, the “Total barnacle Count” value (barnacles [1]; [19]) was 3 and the “Mean ± SD (barnacle count)” value (barnacles [1]; [19]) was 0.8 ± 1.3. The “Total barnacle Count” value (barnacles [1]; [7]) was 1, the “Mean ± SD (barnacle count)” value (barnacles [1]; [7]) was 0.3 ± 0.4 and the “Total barnacle Count” value (barnacles [1]; [20]) was 7. The “Mean ± SD (barnacle count)” value (barnacles [1]; [20]) was 1.8 ± 1.3, the “comparative performance” value (barnacles [1]; copper ablative coatings, 5%, six months) was “outperformed” and the “efficacy / barnacle settlement” value (barnacles [1]) was “significant efficacy”. The “LS MEAN BARNACLES” value (barnacles [4]; CUSP PAINT) was 3 and the “LS MEAN BARNACLES” value (barnacles [4]; MFAB PAINT) was 1.5.
